The test system of data set [1] is human keratinocytes HaCaT. The data set can be described thus: MTT cell viability assay on HaCaT keratinocytes. Particulars: 24 h, 37 °C. Format: cell-based. On the procedure: Figure 2 Cytotoxic profile of peptides against human keratinocytes HaCaT. Cells were incubated with indicated concentrations of peptides at 37 °C for 24 h. Cell viability of HaCaT cells was determined by MTT assay relative to untreated cells (set to 100%). As positive control, cells were treated with 70% EtOH for 10 min. Experiments were conducted in triplicate with n = 3. Error bars represent standard deviation. (**p < 0.01; ***p < 0.001).
The toxic effect of the investigated peptides on HaCaT cells was evaluated using the [3(4,5-dimethylthiazol-2yl)2,5-diphenyltetrazolium bromide] (MTT) colorimetric method. MTT is a tetrazolium salt which is reduced to a purple colored formazan product by mitochondrial reductases, present only in metabolically active cells. Keratinocytes were seeded onto a 96-well microtiter plate at a density of 8 × 10^4 cells per well in DMEMg supplemented with 2 mM L-Gln and 2% FBS. After reaching 70–80% confluency, the medium was removed and cells were incubated at 37 °C for 24 h with peptides at different concentrations ranging from 10 to 100 µM (in serum-free medium). After 24 h of incubation, 10 µl of MTT (in PBS, 0.45 mg/ml final) were added to each well. After 4 h incubation, the supernatants were removed and the formazan crystals were dissolved by adding 100 μl of dimethyl sulfoxide (DMSO). For the positive control, cells were treated with 70% EtOH for 10 min. The absorption was measured at 570 nm and at a reference wavelength of 630 nm using Tecan infinite M200 plate reader.

A further data set relates to HeLa cells. The data set can be described thus: Resazurin-based cell viability assay on HeLa cells. Conditions: 24 h, serum-free RPMI, triplicate, n = 3. Set-up: species or system human. On the procedure: Figure 9 The efficacy of Tylotoin-sC18* towards cancer cells. Microscopic image of HeLa cells treated for 30 min with CF-labeled Tylotoin-sC18* (10 µM, green) at 37 °C (A). Quantification of the cellular uptake of 10 µM CF-labeled peptides for 30 min at 37 °C by flow cytometry (B). Cell viability of HeLa cells after treatment for 24 h with Tylotoin-sC18*, sC18* and Tylotoin, respectively (C). Cells treated with 70% ethanol served as positive control. Data are normalized to untreated cells (100% cell viability). Experiments were performed in triplicate with n = 3. Error bars represent standard deviation. (*p < 0.05).
For a resazurin-based cell viability assay, HeLa cells were seeded onto a 96-well plate, grown to 70–80% confluency and incubated with various concentrations of peptides in serum-free RPMI growth medium for 24 h under standard growth conditions. For the positive control, cells were treated with 70% EtOH for 10 min. After washing with serum-free medium, resazurin solution (10% in serum-free media, v/v) was incubated with the cells for 1 h at 37 °C. Subsequently, cell viability was determined relative to untreated cells by measurement of the resorufin product at 595 nm (λex = 550 nm) on a Tecan infinite M200 plate reader.

For data set [2] the following is noted: cited from earlier work. The source says:
So far, very few studies have been conducted for the use of CPPs in the application field of human skin wound healing[12]–[14]. Thus, to our knowledge, we report for the first time on the fusion of a well-characterized cell penetrating peptide, namely sC18, to a wound healing promoting peptide sequence Tylotoin. This latter short peptide was recently identified and isolated from the skin of the salamander Tylototriton verrucosus. […] More precisely, Tylotoin ...

The next data set concerns Salmonella typhimurium. Particulars: INT assay, 6 h, 37 °C.
For data set [3] the following is noted: cited from earlier work. The source says:
Therefore, it was particularly interesting whether the combination of both, Tylotoin ...
This is another data set of the same source.

Data set [4] in a line: Circular dichroism spectroscopy (secondary structure). Format: physicochemical. Here is the method: Figure 1 Structural characteristics of investigated peptides. CD spectra were acquired at a peptide concentration of 20 µM in 10 mM phosphate buffer, pH 7.0 (A) and in the additional presence of 50% TFE (B). The percentage of the α-helix content was calculated from the ellipticity value at 222 nm using the following formula: (% α-helix = ((([Θ222]−3000)⁄(−36000−3000)) × 100)[47] (C). R-values represent the ratio between the molar ellipticity values at 222 and 208 nm[20] and R = 1 defined as hallmark for a perfectly built α-helix[48]. Helical wheel projections of Tylotoin-sC18* and sC18*-Tylotoin predicted by HeliQuest (D). TEXT PRINTED IN THE PICTURE: (C) Tylotoin-sC18: Percentage of the α-helix content: phosphate buffer: 12.1; Percentage of the α-helix content: 50% TFE: 46.3; R-value: 0.85 | (C) sC18-Tylotoin: Percentage of the α-helix content: phosphate buffer: 13.1; Percentage of the α-helix content: 50% TFE: 43.5; R-value: 0.87 | (C) Tylotoin-sC18*: Percentage of the α-helix content: phosphate buffer: 10.7; Percentage of the α-helix content: 50% TFE: 46.3; R-value: 0.77 | (C) sC18*-Tylotoin: Percentage of the α-helix content: phosphate buffer: 6.9; Percentage of the α-helix content: 50% TFE: 40.5; R-value: 0.74 | (C) Tylotoin: Percentage of the α-helix content: phosphate buffer: 15.6; Percentage of the α-helix content: 50% TFE: 25.0; R-value: 0.51
CD spectra were recorded from 180 nm to 270 nm in 0.5 nm intervals at 20 °C using a JASCO J-715 spectropolarimeter in an N2 atmosphere. The CD spectra were measured using a 1 mm quartz cuvette and the instrument parameters were set as follows: sensitivity, 100 mdeg; scan mode, continuous; scan speed, 50 nm/min; response time, 2 sec and bandwidth, 1.0 nm. Peptides were dissolved in 10 mM potassium phosphate buffer (pH 7.0) containing either 0 or 50% (v/v) trifluoroethanol (TFE) to a final peptide concentration of 20 µM.

Another data set has as its system Micrococcus luteus. Format: cell-based, Micrococcus luteus (DSM 20030). Particulars: INT assay, 6 h, 37 °C. On the procedure:
HaCaT (immortalized human keratinocytes) and HeLa (human cervix carcinoma) cells were cultured in sterile 10 cm petri dishes at 37 °C in a humidified atmosphere of 5% CO2. HaCaT cells were maintained in DMEM containing 4,500 mg/l glucose (DMEMg), 2 mM L-Gln and 10% FBS (fetal bovine serum). HeLa cells were grown in RPMI 1640 supplemented with 4 mM L-Gln and 10% FBS. Bacteria used were Micrococcus luteus (DSM 20030) and Salmonella typhimurium (TA 100). Mueller Hinton (MH) broth agar plates were used for maintenance und MH broth medium was used to carry out antimicrobial activity studies.
Antimicrobial activity of peptide conjugates against gram-positive and gram-negative bacteria was conducted using the p-iodonitrotetrazolium-chloride (INT) violet assay as previously described. INT is a tetrazolium-based reagent which is converted to a pink formazan dye in the presence of metabolically active bacteria.
In brief, M. luteus and S. typhimurium were cultured in MH broth overnight at 37 °C while mild shaking (180 rpm). Overnight-cultured bacteria were added into fresh medium, grown to an optical density of 0.7 at 600 nm and 10 µl bacterial solution were added in triplicate to wells of a 96-well plate (BD Falcon, USA). […] The viability of bacteria relative to untreated bacteria was determined by measuring the absorption at 540 nm on a Tecan infinite M200 plate reader.

Protocol for Salmonella typhimurium: Antimicrobial activity of peptide conjugates against gram-positive and gram-negative bacteria was conducted using the p-iodonitrotetrazolium-chloride (INT) violet assay as previously described[33].
In brief, M. luteus and S. typhimurium were cultured in MH broth overnight at 37 °C while mild shaking (180 rpm). Overnight-cultured bacteria were added into fresh medium, grown to an optical density of 0.7 at 600 nm and 10 µl bacterial solution were added in triplicate to wells of a 96-well plate (BD Falcon, USA). The peptides used at various concentrations and 180 µl of MH medium were added to each corresponding well and incubated for 6 h at 37 °C. 10 µM chloramphenicol served as positive control and H20 was used as negative control. After incubation time, 10 μl of the freshly prepared INT solution (1 mg/ml in DMSO) were added to each well and incubated for further 30 min at 37 °C. The viability of bacteria relative to untreated bacteria was determined by measuring the absorption at 540 nm on a Tecan infinite M200 plate reader.

Turning to “KCVRQNNKRVCK-NH2 [Tylotoin, wound healing promoting peptide from skin of the salamander Tylototriton verrucosus; made as C-terminal amide without disulfide bridge, reference compound]”, the “Cytotoxic effect on keratinocytes viability” value in data set [1] (10 to 100 µM, serum-free medium, triplicate, n = 3) is on record as “no cytotoxic effect at all”. The “Proliferation of HaCaT cells” value in data set [1] is recorded as “enhance the proliferation”. Further, in the data set with HeLa cells, the “Cell viability of HeLa cells” value was “remained unharmed”. For the same substance, in data set [2], the “Wound healing in a murine model” value is reported as “promote wound healing similar to hEGF”. In the data set with Salmonella typhimurium, the “Antimicrobial activity against S. typhimurium” value is listed as “no antimicrobial activities”. Besides, in data set [3], the Antimicrobial activity result is recorded as “did not show any antimicrobial activity”. For the same substance, in data set [4] (CD, 20 µM peptide, 10 mM phosphate buffer pH 7.0, 20 °C, calculated from ellipticity at 222 nm), the “Percentage of the α-helix content: phosphate buffer” value is listed as 15.6%. For the same substance, in data set [4] (CD, 20 µM peptide, 10 mM phosphate buffer pH 7.0 with 50% TFE, 20 °C, calculated from ellipticity at 222 nm), the “Percentage of the α-helix content: 50% TFE” value is 25.0%. Also, the R-value in data set [4] (ratio between molar ellipticity values at 222 and 208 nm, in the presence of 50% TFE, R = 1 perfect α-helix) was 0.51. The “Antimicrobial activity against M. luteus” value in the data set with Micrococcus luteus is reported as “no antimicrobial activity”.

These data come from publication PMC6214915, “Design of a novel cell-permeable chimeric peptide to promote wound healing” (Scientific Reports, 2018).
